Data published in ChEMBL document CHEMBL3621056, “Discovery of mitochondria-targeting berberine derivatives as the inhibitors of proliferation, invasion and migration against rat C6 and human U87 glioma cells” (Medchemcomm, 2015).
pIC50: −log10 of the molar value. The source made the active and inactive calls. The calls are words filed in the database; no cut-off is given here.

What was measured:
U-87MG ATCC [1] = assay: (§1) Antimigratory activity in human U87 cells at 2.5 uM after 24 hrs by Transwell assay relative to control; assay type: functional
U-87MG ATCC [2] = assay: Induction of intracellular reactive oxygen species formation in human U87 cells at 2 uM after 24 hrs by DHE dye-based inverted fluorescent microscopic analysis; assay type: functional, cell-based
[3] = n-octanol/water partition coefficient, log P of the compound by HPLC analysis; assay type: physicochemical
[4] = (§2) Cytotoxicity against human U87 cells assessed as inhibition of cell proliferation after 24 hrs by MTT assay; assay type: functional, cell-based, U-87MG ATCC; conditions: U-87 MG
U-87MG ATCC [5] = assay: as §2; assay type: functional, cell-based
C6 [6] = assay: Cytotoxicity against rat C6 cells assessed as inhibition of cell proliferation after 24 hrs by MTT assay; assay type: functional, cell-based; conditions: for pIC50: C6, 24 h
C6 [7] = assay: Induction of intracellular reactive oxygen species formation in rat C6 cells at 2 uM after 24 hrs by DHE dye-based inverted fluorescent microscopic analysis; assay type: functional, cell-based
C6 [8] = assay: Antiinvasive activity in rat C6 cells at 0.5 uM after 24 hrs by Transwell assay relative to control; assay type: functional
C6 [9] = assay: Antimigratory activity in rat C6 cells at 0.5 uM after 24 hrs by Transwell assay relative to control; assay type: functional
C6 [10] = assay: Antimigratory activity in rat C6 cells at 1 uM after 24 hrs by Transwell assay; assay type: functional, cell-based
[11] = Cytotoxicity against human U87 cells assessed as cell survival rate at 20 uM after 24 hrs by MTT assay relative to control; assay type: functional, U-87MG ATCC; conditions: U-87 MG, read-out: Survival
U-87MG ATCC [12] = assay: (§3) Antiinvasive activity in human U87 cells at 2.5 uM after 24 hrs by Transwell assay relative to control; assay type: functional
C6 [13] = assay: Antiinvasive activity in rat C6 cells at 1 uM after 24 hrs by Transwell assay; assay type: functional, cell-based
C6 [14] = assay: Cytotoxicity against rat C6 cells assessed as cell survival rate at 20 uM after 24 hrs by MTT assay relative to control; assay type: functional; conditions: C6, 24 h, read-out: Survival
[15] = Cytotoxicity against human U87 cells assessed as growth inhibition after 72 hrs by SRB assay; assay type: functional, cell-based, U-87MG ATCC; conditions: U-87 MG
[16] = Drug uptake in mitochondria of rat C6 cells at 1 uM after 24 hrs by Mitotracker Green FM staining-based laser confocal microscopic analysis; assay type: ADME; conditions: c6, 24 h
[17] = (§4) Antimigratory activity in human U87 cells at 0.5 uM after 24 hrs by Transwell assay relative to control; assay type: functional, U-87MG ATCC
C6 [18] = assay: Cytotoxicity against rat C6 cells assessed as cell survival rate at 10 uM after 24 hrs by MTT assay relative to control; assay type: functional; conditions: C6, 24 h, read-out: Survival
[19] = Cytotoxicity against human U87 cells assessed as cell survival rate at 10 uM after 24 hrs by MTT assay relative to control; assay type: functional, U-87MG ATCC; conditions: U-87 MG, read-out: Survival
[20] = Drug uptake in mitochondria of human U87 cells at 1 uM after 24 hrs by Mitotracker Green FM staining-based laser confocal microscopic analysis; assay type: ADME; conditions: u-87mg atcc
[21] = (§5) Antiinvasive activity in human U87 cells at 0.5 uM after 24 hrs by Transwell assay relative to control; assay type: functional, U-87MG ATCC
[22] = Antimigratory activity in human U87 cells at 2 uM after 24 hrs by Transwell assay relative to control; assay type: functional, U-87MG ATCC
[23] = Antiinvasive activity in human U87 cells at 2 uM after 24 hrs by Transwell assay relative to control; assay type: functional, U-87MG ATCC
U-87MG ATCC [24] = assay: as §4; assay type: functional
U-87MG ATCC [25] = assay: as §5; assay type: functional
[26] = as §1; assay type: functional, U-87MG ATCC
[27] = Cytotoxicity against human U87 cells assessed as cell survival rate up to 20 uM after 24 hrs by MTT assay relative to control; assay type: functional, U-87MG ATCC
[28] = as §3; assay type: functional, U-87MG ATCC
C6 [29] = assay: Antiinvasive activity in rat C6 cells at 5 uM after 24 hrs by Transwell assay; assay type: functional, cell-based
U-87MG ATCC [30] = assay: Antiinvasive activity in human U87 cells at 5 uM after 24 hrs by Transwell assay; assay type: functional, cell-based
C6 [31] = assay: Antimigratory activity in rat C6 cells at 5 uM after 24 hrs by Transwell assay; assay type: functional, cell-based
U-87MG ATCC [32] = assay: Antimigratory activity in human U87 cells at 5 uM after 24 hrs by Transwell assay; assay type: functional, cell-based

Row | SMILES | Activity (U-87MG ATCC [2]) | logP [3] | pIC50 [4] | inhibition (U-87MG ATCC [5]) | inhibition (C6 [6]) | pIC50 (C6 [6]) | Activity (C6 [7]) | Activity (C6 [8]) | Activity (C6 [9]) | Drug uptake [16] | viability at 10 µM (C6 [18]) [%] | viability at 10 µM [19] [%] | Drug uptake [20] | Activity [26] [%] | Activity [28] [%] | also measured
1 | CCCCCCCCCCOc1c(OC)ccc2cc3[n+](cc12)CCc1cc2c(cc1-3)OCO2 | Active | 2.26 | 5.24 | Dose-dependent effect | Dose-dependent effect | 5.53 | Active | Active | Active |  |  |  |  |  |  | Activity (U-87MG ATCC [1]): Active
2 | COc1ccc2c(Cc3ccccc3)c3[n+](cc2c1OC)CCc1cc2c(cc1-3)OCO2 | inactive | -0.73 | < 4.70 | Dose-dependent effect | Dose-dependent effect | 4.84 | inactive |  |  |  |  |  |  |  |  | Activity (U-87MG ATCC [1]): inactive; Activity (C6 [10]): inactive; viability at 20 µM [11]: 67.2%; Activity (U-87MG ATCC [12]): inactive; Activity (C6 [13]): inactive; viability at 20 µM (C6 [14]): 37.2%
3 | Cn1nnc2c(C(N)=O)ncn2c1=O [TEMOZOLOMIDE] |  |  |  |  |  |  |  |  |  |  |  |  |  |  |  | pIC50 [15]: 4.71
4 | CCCCCCCCCCCCc1c2[n+](cc3c(OC)c(OC)ccc13)CCc1cc3c(cc1-2)OCO3.[I-] | Active | 3.66 | 5.51 | Dose-dependent effect | Dose-dependent effect | 5.78 | Active | >60% | >60% | Active | < 20 | < 20 | Active |  |  | Activity [17]: >60%; Activity [21]: >60%
5 | CCCCCCCCCCCCOc1c(OC)ccc2cc3[n+](cc12)CCc1cc2c(cc1-3)OCO2.[Br-] | Active | 3.43 | 5.34 | Dose-dependent effect | Dose-dependent effect | 5.91 | Active | >60% | >60% | Active |  |  | Active |  |  | Activity [22]: >60%; Activity [23]: >60%
6 | CCCCCCCCCCCCCCCCc1c2[n+](cc3c(OC)c(OC)ccc13)CCc1cc3c(cc1-2)OCO3.[I-] |  | 3.24 | 5.49 | Dose-dependent effect | Dose-dependent effect | 5.78 |  | >30% | >30% | Active | < 20 | < 20 | Active |  |  | Activity [17]: >30%; Activity [21]: >30%
7 | CCCCCCCCCCc1c2[n+](cc3c(OC)c(OC)ccc13)CCc1cc3c(cc1-2)OCO3 | Active | 2.37 | 5.44 | Dose-dependent effect | Dose-dependent effect | 5.95 | Active | Active | Active |  | < 20 | < 20 |  |  |  | Activity (U-87MG ATCC [24]): Active; Activity (U-87MG ATCC [25]): Active
8 | CCc1c2c(nc3ccc(OC(=O)N4CCC(N5CCCCC5)CC4)cc13)-c1cc3c(c(=O)n1C2)COC(=O)[C@]3(O)CC [IRINOTECAN] |  |  |  |  |  |  |  |  |  |  |  |  |  |  |  | pIC50 [15]: < 3.60
9 | CCCCCCCCCCCCCCCCOc1c(OC)ccc2cc3[n+](cc12)CCc1cc2c(cc1-3)OCO2.[Br-] |  | 3.41 | 4.82 | Dose-dependent effect | Dose-dependent effect | 5.21 |  | >60% | >60% | Active |  |  | Active | >60 | >60 | Survival [27]: 38.95%
10 | COc1ccc2cc3[n+](cc2c1OCc1ccccc1)CCc1cc2c(cc1-3)OCO2.[Br-] | Active | -0.86 | < 4.70 | Dose-dependent effect | Dose-dependent effect | 4.94 | Active | >30% | >30% |  |  |  |  | >30 | >30 | 
11 | CCCCCCCCCCCCCCCCCCOc1c(OC)ccc2cc3[n+](cc12)CCc1cc2c(cc1-3)OCO2.[Br-] | inactive | 3.01 | 4.65 | Dose-dependent effect | Dose-dependent effect | 5.35 | inactive | >30% | >30% |  |  |  |  | >30 | >30 | 
12 | COc1ccc2cc3[n+](cc2c1OC)CCc1cc2c(cc1-3)OCO2.[Cl-] [BERBERINE CHLORIDE] | inactive | -1.68 | < 4.70 |  |  | < 4.70 | inactive |  |  | Active |  |  | Active |  |  | Activity (C6 [29]): Active; Activity (U-87MG ATCC [30]): Active; Activity (C6 [31]): Active; Activity (U-87MG ATCC [32]): Active
13 | CCCCCCCCCCCCCCCCCCc1c2[n+](cc3c(OC)c(OC)ccc13)CCc1cc3c(cc1-2)OCO3.[I-] | inactive | 3.22 | 5.24 | Dose-dependent effect | Dose-dependent effect | 5.63 | inactive | >30% | >30% |  | < 20 | < 20 |  | >30 | >30 | 
